Tests used:
Experiment in all cases: relative viability (nuclei count vs DMSO), 5 days (fraction); higher = more cells survive
[1] = compound: COc1ncc(-c2ccc3nccc(-c4ccnnc4)c3c2)cc1NS(=O)(=O)c1ccc(F)cc1F [Omipalisib] + CC(=O)Nc1cccc(-n2c(=O)n(C3CC3)c(=O)c3c(Nc4ccc(I)cc4F)n(C)c(=O)c(C)c32)c1 [Trametinib] (partner 0.02 µM)
Summary of the method: (§1)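 After 5 days of treatment, lung cancer cells in 1536-well plates were fixed and stained in a single step (final 0.05% Triton X-100, 1% formaldehyde, 1 ug/ml Hoechst) and their nuclei counted on 4× images. Treatment had been applied by pin tool the day after seeding as one drug alone or as a fixed anchor-drug dose with five library-drug doses (not always all listed) in √10 steps. Relative viability is the nuclei count of treated wells divided by that of vehicle wells, and values are medians of duplicate plates.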

[2] = compound: COc1ncc(-c2ccc3nccc(-c4ccnnc4)c3c2)cc1NS(=O)(=O)c1ccc(F)cc1F [Omipalisib] + O=C(c1cc(Cc2n[nH]c(=O)c3ccccc23)ccc1F)N1CCN(C(=O)C2CC2)CC1 [Olaparib] (partner 8 µM)
Summary of the method: as §1

[3] = compound: COc1ncc(-c2ccc3nccc(-c4ccnnc4)c3c2)cc1NS(=O)(=O)c1ccc(F)cc1F [Omipalisib] + Cc1nc(NC(=O)N2CCC[C@H]2C(N)=O)sc1-c1ccnc(C(C)(C)C(F)(F)F)c1 [Alpelisib] (partner 2 µM)
Summary of the method: as §1

[4] = compound: COc1ncc(-c2ccc3nccc(-c4ccnnc4)c3c2)cc1NS(=O)(=O)c1ccc(F)cc1F [Omipalisib] + C[C@]1(O)C[C@@H](c2nc(-c3ccc4ccc(-c5ccccc5)nc4c3)c3c(N)nccn32)C1 [Linsitinib] (partner 1 µM)
Summary of the method: as §1

[5] = compound: COc1ncc(-c2ccc3nccc(-c4ccnnc4)c3c2)cc1NS(=O)(=O)c1ccc(F)cc1F [Omipalisib] + Cc1cc(Nc2cc(N3CCN(C)CC3)nc(Sc3ccc(NC(=O)C4CC4)cc3)n2)n[nH]1 [Tozasertib] (partner 0.1 µM)
Summary of the method: as §1

[6] = compound: COc1ncc(-c2ccc3nccc(-c4ccnnc4)c3c2)cc1NS(=O)(=O)c1ccc(F)cc1F [Omipalisib] + N=C(N)NC(=N)NCCc1ccccc1 [Phenformin] (partner 250 µM)
Summary of the method: as §1

Cell Line | relative viability ([1]; first compound 0.0003 µM) | relative viability ([1]; first compound 0.003 µM) | relative viability ([1]; first compound 0.03 µM) | relative viability ([2]; first compound 0.0003 µM) | relative viability ([2]; first compound 0.003 µM) | relative viability ([2]; first compound 0.03 µM) | relative viability ([3]; first compound 0.0003 µM) | relative viability ([3]; first compound 0.003 µM) | relative viability ([3]; first compound 0.03 µM) | relative viability ([4]; first compound 0.0003 µM) | relative viability ([4]; first compound 0.003 µM) | relative viability ([4]; first compound 0.03 µM) | relative viability ([5]; first compound 0.0003 µM) | relative viability ([5]; first compound 0.003 µM) | relative viability ([5]; first compound 0.03 µM) | relative viability ([6]; first compound 0.0003 µM) | relative viability ([6]; first compound 0.003 µM) | relative viability ([6]; first compound 0.03 µM)
NCI-H1793 | 0.375 | 0.334 | 0.194 | 0.576 | 0.368 | 0.196 | 0.577 | 0.435 | 0.292 | 0.648 | 0.416 | 0.288 | 0.287 | 0.209 | 0.113 | 0.372 | 0.22 | 0.188
NCI-H460 | 0.0973 | 0.0781 | 0.0544 | 0.337 | 0.373 | 0.167 | 0.362 | 0.241 | 0.0908 | 0.509 | 0.232 | 0.0381 | 0.476 | 0.393 | 0.0957 | 0.461 | 0.24 | 0.0524
201T | 0.681 | 0.658 | 0.465 | 0.803 | 0.859 | 0.526 | 1.02 | 0.999 | 0.735 | 1.03 | 0.916 | 0.769 | 0.883 | 0.894 | 0.473 | 0.47 | 0.421 | 0.338
HCC-78 | 0.596 | 0.558 | 0.275 | 0.665 | 0.542 | 0.298 | 0.297 | 0.296 | 0.193 | 0.389 | 0.358 | 0.24 | 0.327 | 0.328 | 0.21 | 0.683 | 0.571 | 0.282
NCI-H596 | 0.899 | 0.494 | 0.299 | 0.639 | 0.604 | 0.402 | 0.491 | 0.363 | 0.395 | 0.817 | 0.517 | 0.355 | 0.824 | 0.598 | 0.287 | 0.692 | 0.445 | 0.387
HCC-366 | 0.245 | 0.152 | 0.0615 | 0.327 | 0.137 | 0.0831 | 0.352 | 0.182 | 0.103 | 0.394 | 0.156 | 0.0479 | 0.113 | 0.0977 | 0.0346 | 0.625 | 0.263 | 0.181
NCI-H520 | 0.576 | 0.314 | 0.172 | 0.295 | 0.294 | 0.139 | 0.802 | 0.608 | 0.292 | 0.9 | 0.672 | 0.275 | 0.319 | 0.308 | 0.235 | 0.405 | 0.209 | 0.2
RERF-LC-KJ | 0.769 | 0.635 | 0.413 | 0.883 | 0.763 | 0.562 | 0.865 | 0.583 | 0.627 | 0.883 | 0.716 | 0.697 | 0.463 | 0.525 | 0.382 | 0.416 | 0.371 | 0.28
